From patent US20030105167A1, “Treatment of opthalmic diseases” (priority 2001, published 2003)

Experiments:
[1] = system: Trabecular meshwork cells; test: Survival of primary trabecular meshwork cells under toxic conditions (live-dead dyes); assay type: cell-based; conditions: hydrogen peroxide 100 uM, 24 hours, compound 2nM
Experimental: Trabecular meshwork cells used here were grown from fresh explants obtained from normal donors according to the procedures described in Agarwal et al., (1999) Exp Eye Res., Vol. 68, pp. 583 90 and Hogg et al., (2000) Invest Ophthalmol Vis. Sci., Vol. 41, pp. 1091-8. Cells were toxic conditions by exposure to hydrogen peroxide at 100 uM for 24 hours, which typically kills at least 50% of cells. With different batches of cells, the hydrogen peroxide concentration necessary to obtain 50% cell death frequently needs to be determined empirically. Trabecular cell viability was assessed using commercially available live-dead dyes. Other stains such as stains for DNA fragmentation or annexin binding are also suitable.
Compounds C and D, above, were initially dissolved at lmg/ml in absolute ethanol and diluted in culture medium to a final concentration of 2nM. To control for possible ethanol effects in the treated wells, all batches of media used here as were supplemented with absolute ethanol at appropriate concentrations. Cultured trabecular cells were incubated under toxic conditions with either compound C, compound D or no compound added for a period of 24 hours. Trabecular cell viability was assessed using commercially available live-dead dyes.

[2] = system: SHSY-5Y neuroblastoma cells; test: FRET assay of Ca+2-induced mitochondrial membrane potential (ΔΨm) collapse in neuroblastoma cells; assay type: cell-based; conditions: FIG. 1; right shift of dose response curve compared to control
Experimental: With reference to FIG. 1, mitochondria rapidly take up exogenous Ca^+2 to a maximum value before undergoing an irreversible loss of ΔΨm. ΔΨm was monitored after exposure to Ca^+2 concentrations ranging from 0 to 50 uM using a fluorescence resonance energy transfer (FRET) assay (Dykens and Stout, 2001). Cells were preincubated with 17β-estradiol and 17α-estradiol at 0.5 uM for 2.5 hrs. prior to Ca^+2 challenge, which was imposed by adding Ca^+2 directly to cells that had been permeabilized with digitonin (0.008%) final concentration, 5 min). The response, calculated as area under the curve, was plotted versus log Ca^+2 concentration using sigmoid regression analysis.
The excitation dye in the FRET ΔΨm assay is nonyl acridine orange (NAO). NAO is an exceptionally selective stain for cardiolipin, a lipid found intracellularly almost exclusively (>99%) in the mitochondrial inner membrane. Its staining of the inner membrane is independent of ΔΨm. […]
Because uptake and retention of TMR depends on ΔΨm, at a given dye concentration, the extent of quenching of NAO by TMR reflects the magnitude of ΔΨm. […] The corresponding loss of proximity abolishes quenching of NAO, so that loss of ΔΨm is detected as an increase in NAO fluorescence.

cell culture models = conditions: doses as low as; cited from earlier work
retinal ganglion cells = test: Survival of axotomized retinal ganglion cells after intraorbital optic nerve transection; assay type: in vivo; conditions: ovarectomized adult female rats, twice daily subcutaneous injection in oil, two days prior to eight days following transection; counted after an additional 4 weeks
Experimental: The drugs were dissolved in sesame oil (Penta) at 100 ug/ml. Adult female rats to be used in these experiments were first ovarectomized. Rats were then subjected to intraorbital transection of the optic nerve, a procedure that leads to progressive degeneration of the majority of retinal ganglion cells. Cells survive for a few days and then die abruptly such that by one week only 50% survive and by two weeks only 10% survive. Axotomy is well known to lead to the death of retinal ganglion cells by an apoptotic process, causing classical cytochemical alterations characteristic of programmed cell death.
From two days prior to eight days following optic nerve transactions, 17β-estradiol, ent-17β-estradiol, or appropriate amount of vehicle control sample was administered to the animals by a twice daily subcutaneous injection of compound in oil at 100 ug/ml (see above), such that the final concentration delivered was 100 ug/. If the protective compounds to be used are in a water soluble formulation, they can, alternatively, be delivered by a single intravitreal injection. […]
After an additional 4 weeks, the retinal ganglial cells were labeled by retrograde staining with the carbocyanine dye, 4Di-10Asp, which was applied to the nerve stump. Three days later animals were sacrificed and surviving retinal cells were counted in retinal whole mounts. […]

retinal ganglion layer = conditions: administered prior to the insult; several days following reperfusion; cited from earlier work
[3] = system: mouse HT-22 hippocampal cells; test: Protection against glutamate toxicity, calcein AM viability; assay type: cell-based; conditions: glutamate 10 mM, 16 hours, representative study; read-out: Calculated EC50 for protection of cell viability
Experimental: For instance, in this study, mouse HT-22 hippocampal cells were cultured in DMEM supplemented with 10% fetal calf serum. Cells were plated and simultaneously treated with glutamate (10 mM) and one of the test compounds individually, for instance compound H (also referred to as Compound 4565 in FIG. 2 and one of many protective PPCs disclosed in PCT publications WO02/36605 and WO00/63228), below or positive control 17β-estradiol (E), at various doses between 10 nM and 10 µM. After 16 hours, cell viability was determined using the calcein AM fluorescence (Excitation/Emission 485/530 […]) in a Bio-Tex Microplate Fluorescence Reader.

[4] = system: Transformed rat retinal ganglion cells (RGC-5 cells); test: FRET assay of Ca+2-induced ΔΨm collapse in transformed retinal ganglion cells; assay type: cell-based; conditions: FIG. 2; for extent of mitochondrial failure at the highest Ca+2 concentration: P<0.05 via ANOVA; for extent of mitochondrial collapse compared to buffer-treated controls: compound 5 minutes prior to Ca+2
Description: Transformed rat retinal ganglion cells (RGC-5 cells) were produced by transforming Sprague-Dawley rat retinal cells from postnatal day I rats with replication incompetent Ψ2 EIA virus and was originally established to help illuminate the basic mechanisms underlying RGC apoptosis in glaucoma (Krishnomoorthy, et al., 2001). The cells express the specific cellular marker, Thy-1, consistent with their retinal ganglion cell origin. Confirmation of Thy-1 expression was made by RT-PCR, immunocytochemistry and immunoblot analysis. […] The toxicity response with glutamate has an EC50 of about 50 uM. Importantly, transformed RGC cells undergo TUNEL-positive apoptotic-mediated cell death upon serum deprivation, indicating the presence of classical apoptosis pathways induced by mitochondrial dysfunction and/or failure.
Possible mitochondrial responses of our compounds are evaluated in intact RGC-5 cells using an assay for mitochondrial ΔΨm which is based on fluorescence energy transfer (FRET) between two dyes that colocalize to the mitochondria. The FRET assay circumvents the confounding variables of plasma membrane potential and the low flourcscence efficiency typical of single potentiometric dyes (Dykens and Stout, 2001). Transformed retinal ganglion cells (RGC-5) were plated at a concentration of 60K cells/well twenty-four hours prior to the experiment. The cells were permeabilized in place with 0.08% digitonin. Cells were exposed to 17β-estradiol, 17α-estradiol, and a non-hormonal PPC, Compound H (see Example 5), for 5 minutes prior to the addition of Ca^+2.
The excitation dye in the FRET ΔΨm assay is nonyl acridine orange (NAO). NAO is an exceptionally selective stain for cardiolipin, a lipid found intracellularly almost exclusively (>99%) in the mitochondrial inner membrane. Its staining of the inner membrane is independent of ΔΨm. The second dye is tetramethylrhodamine (TMR), a potentiometric dye that is sequestered into the mitochondrial matrix as a Nernstian function of ΔΨm and imposed concentration. It is the specificity of NAO staining for cardiolipin, combined with the absolute prerequisite for close proximity of both dyes, that allows this FRET assay to report ΔΨm without interference from plasma membrane potential.
Because uptake and retention of TMR depends on ΔΨm, at a given dye concentration, the extent of quenching of NAO by TMR reflects the magnitude of ΔΨm. Dissipation of ΔΨm, in response to […], elevated Ca+2 load, or respiratory […], results in efflux of TMR from the mitochondrion. The corresponding loss of proximity abolishes quenching of NAO, so that loss of ΔΨm is detected as an increase in NAO fluorescence.

[5] = system: Human retinal pigment epithelial cells (RPE340 cells); test: Survival of retinal pigment epithelial cells under hyperoxia (Trypan blue exclusion); assay type: cell-based; conditions: 40% O2 hyperoxia, 5 days, compound 2 nM
Experimental: Human retinal pigment epithelial cells (RPE340 cells) were grown and subjected to conditions of hyperoxia according to Honda et al., (2001) Invest Ophthalmol Vis. Sci., Vol. 42, pp. 2139-44. The cells were subjected to either 40% O2 or 20% O2 (control) for the duration of the experiment. These conditions are known to induce apoptotic cell death.
Compounds A and B, above, were initially dissolved at 1 mg/ml in absolute ethanol and diluted in culture medium to a final concentration of 2 nM. To control for possible ethanol effects in the treated wells, all batches of media used here were supplemented with absolute ethanol at appropriate concentrations. Cells were incubated under hyperoxic conditions with either compound A, compound B or no compound added for a period of 5 days. Effects on cell viability and growth were monitored by Trypan blue exclusion.

[6] = system: Transformed rat retinal ganglion cells (RGC-5 cells); conditions: read-out: EC50 of toxicity response; cited from earlier work

C[C@]12CC[C@@H]3c4cc(C56CC7CC(CC(C7)C5)C6)c(O)cc4CC[C@H]3[C@@H]1CCC2=O [C, 2-(1-Adamantyl)-3-hydroxyestra-1,3, 5 (10)-trien-17-one]
survival of trabecular cells [1]: significantly improve survival

C[C@]12CC[C@@H]3c4ccc(O)cc4CC[C@H]3[C@@H]1CC[C@@H]2O [17β-estradiol]
amount of Ca+2 required to induce ΔΨm collapse [2]: substantially increase
dose giving substantial cytoprotection (cell culture models): 0.2 nM
number of surviving retinal ganglial cells compared to the controls (retinal ganglion cells): 3 fold
cell density in the retinal ganglion layer (retinal ganglion layer): significantly higher
EC50 [3]: 2.2 µM
extent of mitochondrial failure at the highest Ca+2 concentration [4]: significantly lowered
extent of mitochondrial collapse compared to buffer-treated controls [4]: moderated

C[C@]12CC[C@@H]3c4ccc(O)cc4CC[C@H]3[C@@H]1CC[C@H]2O [17α-estradiol]
amount of Ca+2 required to induce ΔΨm collapse [2]: substantially increase
dose giving substantial cytoprotection (cell culture models): 0.2 nM
extent of mitochondrial failure at the highest Ca+2 concentration [4]: significantly lowered
extent of mitochondrial collapse compared to buffer-treated controls [4]: moderated

C[C@]1(CO)CC[C@@H]2c3ccc(O)cc3CC[C@H]2C1 [compound A, [2S-(2a, 4aα, 10aβ)]-1,2,3,4,4a,9,10,10a-octahydro-7-hydroxy-2-methyl-2-phenanthrenemethanol]
protection from cell death [5]: protect these cells from cell death

N[C@@H](CCC(=O)O)C(=O)O [glutamate]
EC50 [6]: ~50 µM

C[C@]1(C=O)CC[C@@H]2c3ccc(O)cc3CC[C@H]2C1 [compound B, [2S-(2a, 4aα, 10aβ)]-1,2,3,4,4a, 9, 10, 10a-octahydro-7-hydroxy-2-methyl-2-phenanthrenecarboxaldehyde]
protection from cell death [5]: protect these cells from cell death

CC(C)(C)c1cc2c(cc1O)CC[C@@H]1[C@@H]2CC[C@]2(C)C(=O)CC[C@@H]12 [D, 2-(1-tertbutyl)-3-hydroxyestra-1,3, 5 (IO)-trien-17-one]
survival of trabecular cells [1]: significantly improve survival

C[C@@]12CC[C@H]3c4ccc(O)cc4CC[C@@H]3[C@H]1CC[C@H]2O (single isomer, unassigned; ent-17) [ent-17β-estradiol]
number of surviving retinal ganglial cells compared to the controls (retinal ganglion cells): 3 fold
